Source: BindingDB's records for doi:10.1016/j.bmcl.2011.03.068 (The University of Utah, 2011)

Target: Autotaxin (Homo sapiens, UniProt Q13822)
Assay: Inhibition of human recombinant ATX lysophospholipase activity expressed in insect sf9 cells using FS-3 fluorogenic substrate preincubated for 10 mins measured after 5 and 25 mins by fluorometric analysis

SMILES | Ki [µM]
CCCCCCCCCCCCCC(=O)Nc1ccc(C(O)P(=O)(O)O)cc1 (configuration not stated) | 0.024
CCCCCCCCCC(=O)Nc1ccc(C(O)P(=O)(O)O)cc1 (configuration not stated) | 0.024
